Results on five compounds are retold here after patent US9399635B2, “Pyrazole derivative” (GREEN TECH CO., LTD., priority 2011, dated 2016).

SMILES strings stand for the structures. Where two headings read alike, the source gives them in different places.

Data set [1] is described as follows: Evaluation of in vivo pharmacokinetics (blood and brain concentrations, LC-MS/MS). Particulars: male, rat, SD rats, brain. The protocol: Pharmacological test example 4: Evaluation of in vivo pharmacokinetics
To SD rats (male, 7 weeks old), the test compound was orally administered (p. o.) at an amount of 50 mg/kg bw or intravenously administered (i.v.) at an amount of 1 mg/kg bw and the concentrations in the blood and brain were measured up to 3 hours. The administration vehicle was an 80% PEG 400 aqueous solution. The blood was collected under isoflurane inhalational anesthesia and the brain was harvested after the rats were sacrificed. The plasma was separated from the blood. The brain was homogenized after addition of a three-fold volume of PBS and then methanol was added thereto. Thus the prepared test samples were subjected to measurement. The measurement was performed by LC-MS/MS (Applied Biosystems and Waters).
The blood concentration changes of the compounds of Example 2 and Example 2 (2) ((1E,6E)-1-(1H-indol-6-yl)-7-[2-methoxy-4-(2-pyridylmethoxy)phenyl]hepta-1,6-diene-3,5-dione) after oral administration (p.o.) thereof are shown in FIG. 2. The brain concentration changes of the compounds after intravenous administration (i.v.) and oral administration (p.o.) thereof are shown in Table 2.

Data set [2] deals with recombinant three-repeat microtubule-binding domain (3R-MBD) of tau protein (Homo sapiens, UniProt P10636). Briefly: Determination of tau aggregation inhibitory activity (heparin-induced, thioflavin T fluorescence; electron microscope). To be noted: for IC50: 3R-MBD tau 10 μM, heparin 10 μM, 37° C. for 16 hours, thioflavin T, read-out: IC50 (μM) Test example 1 (tau aggregation inhibitory activity); for tau aggregation inhibitory activity at 1 μM: compound at 1 μM. It is filed as biochemical. As to the method:
Pharmacological Test Example 1: Determination of Tau Aggregation Inhibitory Activity
A recombinant three-repeat microtubule-binding domain (3R-MBD) of tau protein was expressed in E. coli and was purified and used for the experiment. The purified tau solution was diluted with a 50 mM Tris-HCl buffer (pH 7.6) to a final concentration of 10 μM. The test compounds were prepared using dimethylsulfoxide (DMSO) at 20-fold of their final concentrations and added to the plate so that the DMSO concentration would be 5%. Heparin was added to the plate so that the final concentration would be 10 μM and the plate was left to stand at 37° C. for 16 hours. Thioflavin T was added to the plate so that the concentration would be 10 μM and the fluorescence intensity was measured with a fluorescence plate reader (PerkinElmer, Inc.) (excitation wavelength: 440 nm; emission wavelength: 480 nm).
(§1) The final concentration of each compound at the time of measurement was set at 0.1, 0.3, 1, 3, and 10 μM. The sample to which only DMSO was added was used as a negative control and its fluorescence intensity was taken as 0% inhibitory activity.
The samples were placed on a grid and washed with distilled water. A 1 mM phosphotungstic acid aqueous solution was added to the samples. The samples were washed, dried overnight, and observed.

Data set [3] addresses T1, Aβ 1-42 (Homo sapiens, UniProt P05067).
T1 construct: Aβ 1-42 (Peptide Institute, Inc.) was dissolved in 0.3% ammonia water; purchased Peptide Institute, Inc
Briefly: Determination of Aβ aggregation inhibitory activity (thioflavin T fluorescence). It is filed as biochemical. Particulars: for IC50: Aβ 1-42, 37° C. for 24 hours, thioflavin T, read-out: IC50 (μM) Test example 3 (Aβ aggregation inhibitory activity). As to the method:
Pharmacological test example 3: Determination of Aβ aggregation inhibitory activity
Aβ 1-42 (Peptide Institute, Inc.) was dissolved in 0.3% ammonia water so that the concentration would be 0.5 mM and then diluted with PBS to 20 μM. The test compounds were prepared using DMSO at 100-fold of their final concentrations and adjusted so that the DMSO concentration would be 2%. The Aβ solution and each of the test compound solutions were mixed at an equivalent ratio and the mixtures were incubated at 37° C. for 24 hours. To each of the mixtures, an equal volume of a thioflavin T solution adjusted with a 100 mM Tris-glycine buffer (pH 8.5) to 6 μM was added. The fluorescence intensity was measured with a fluorescence plate reader (excitation wavelength: 440 nm; emission wavelength: 480 nm).
as §1

The target in data set [4] is T2, recombinant human β-secretase (Homo sapiens, UniProt P56817).
T2 construct: purchased Invitrogen
Description: Determination of β-secretase inhibitory activity (BACE-1 FRET assay Kit). It is filed as biochemical. Particulars: for IC50: recombinant human β-secretase, fluorescent substrate peptide, 1 hour, read-out: IC50 (μM) Test example 2 (β-secretase inhibitory activity); for inhibition at 1 µM: compound at 1 μM. The protocol:
Pharmacological Test Example 2: Determination of β-Secretase Inhibitory Activity
The β-secretase inhibitory activity was measured with BACE-1 FRET assay Kit (Invitrogen). The test compounds were prepared using DMSO at 30-fold of their final concentrations and dissolved so that the DMSO concentration would be 10%. To each of the solutions, an equal volume of a recombinant human β-secretase (1 U/mL) dissolved in the assay buffer and an equal volume of fluorescent substrate peptide (2.5 nM) were added and the solutions were left to stand for 1 hour. The fluorescence intensity was measured with a fluorescence plate reader (excitation wavelength: 545 nm; emission wavelength: 590 nm).
The final concentration of each compound at the time of measurement was set at 0.1, 0.3, 1, 3, and 10 μM, at 0.3, 1, 3, 10, and 30 μM, or at 1, 3, 10, 30, and 100 μM.

T1 sequence (P05067 672-713): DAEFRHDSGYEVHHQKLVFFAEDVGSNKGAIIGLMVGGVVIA
T2 sequence (P56817 46-501): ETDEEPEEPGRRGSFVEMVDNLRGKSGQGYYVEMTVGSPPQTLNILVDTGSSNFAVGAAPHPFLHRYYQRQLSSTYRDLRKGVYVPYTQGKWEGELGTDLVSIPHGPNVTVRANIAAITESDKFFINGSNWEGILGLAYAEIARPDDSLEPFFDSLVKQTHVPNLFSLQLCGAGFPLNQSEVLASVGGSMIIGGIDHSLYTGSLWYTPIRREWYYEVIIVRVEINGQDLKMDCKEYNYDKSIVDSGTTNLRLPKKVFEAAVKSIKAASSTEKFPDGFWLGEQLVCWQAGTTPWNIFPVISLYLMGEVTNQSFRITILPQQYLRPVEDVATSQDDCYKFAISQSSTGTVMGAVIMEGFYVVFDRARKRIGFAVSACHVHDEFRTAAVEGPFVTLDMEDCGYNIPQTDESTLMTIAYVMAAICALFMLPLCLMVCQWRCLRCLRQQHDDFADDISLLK
Sequence of recombinant three-repeat microtubule-binding domain (3R-MBD) of tau protein (P10636 186-279 isoform P10636-2 limits assumed): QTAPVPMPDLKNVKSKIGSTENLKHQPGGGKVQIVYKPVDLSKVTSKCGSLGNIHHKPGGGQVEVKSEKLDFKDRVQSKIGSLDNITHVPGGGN

`COc1cc(OCc2ccccn2)ccc1/C=C/C(=O)CC(=O)/C=C/c1ccc2cc[nH]c2c1` [Example 2 (2), (1E,6E)-1-(1H-indol-6-yl)-7-[2-methoxy-4-(2-pyridylmethoxy)phenyl]hepta-1,6-diene-3,5-dione]: the concentration at 5 min in data set [1] (intravenous 1 mg/kg bw, 5 min, read-out: brain concentration i.v. 5 min) is 5.15 ± 3.34 ng/mL. Also, the concentration at 180 min came out at 0.93 ± 0.67 ng/mL in data set [1] (intravenous 1 mg/kg bw, read-out: brain concentration i.v. 180 min) and 18 ± 30.8 ng/mL in data set [1] (oral 50 mg/kg bw, read-out: brain concentration p.o. 180 min). In data set [1] (oral 50 mg/kg bw, 60 min, read-out: brain concentration p.o. 60 min), the concentration at 60 min turned out to be 0 ng/mL.

In turn, `CN1CCN(c2ccc(/C=C/c3cc(/C=C/c4ccc5cc[nH]c5c4)[nH]n3)cc2)CC1` [Example 102, 5-[(1E)-2-(1H-indol-6-yl)ethenyl]-3-[(1E)-2-[4-(4-methylpiperazin-1-yl)phenyl]ethenyl]-1H-pyrazole] gave a melting point of 192 to 198 °C. For the same compound, the IC50 in data set [2] worked out at 1.46 µM. The IC50 in data set [3] stood at 4.33 µM. Moreover, the half-inhibitory concentration (IC50) in data set [4] turned out to be 1.06 µM.

With `COc1cc(OCc2ccccn2)ccc1/C=C/c1cc(/C=C/c2ccc(OCc3ccccn3)cc2OC)[nH]n1` [Example 110, 3,5-bis[(1E)-2-[2-methoxy-4-(2-pyridylmethoxy)phenyl]ethenyl]-1H-pyrazole], the melting point lay within 195 to 197 °C. In addition, the “tau aggregation inhibitory activity at 1 μM” value in data set [2] was determined as 0%. In data set [3], the IC50 was 1.9 µM. The inhibition at 1 µM in data set [4] stood at 12%.

In turn, `COc1cc(OCc2ccccn2)ccc1/C=C/c1cc(/C=C/c2ccc(O)c(N)c2)[nH]n1` [Example 111, 3-[(1E)-2-[2-methoxy-4-(2-pyridylmethoxy)phenyl]ethenyl]-5-[(1E)-2-(3-amino-4-hydroxy-phenyl)ethenyl]-1H-pyrazole] showed a melting point of 123 to 126 °C. Besides, in data set [2], the IC50 turned out to be 1.46 µM. Also, the 50% inhibitory concentration (IC50) in data set [3] was determined as 5.05 µM. In addition, the concentration for half-maximal inhibition (IC50) in data set [4] was found to be 2.89 µM.

In turn, `C(=C\c1cc(/C=C/c2ccc3cc[nH]c3c2)[nH]n1)/c1ccc2cc[nH]c2c1` [Example 112, 3,5-bis[(1E)-2-(1H-indol-6-yl)ethenyl]-1H-pyrazole] gave a melting point of 289 to 291 °C. The “tau aggregation inhibitory activity at 1 μM” value in data set [2] worked out at 24%. Also, the IC50 in data set [3] came out at 2.8 µM. In data set [3] (compound at 3 μM), the inhibition at 3 µM amounted to 17%. The inhibition at 1 µM in data set [4] came to 30%.

As a reminder, the IC50 is the concentration at which inhibition is half-maximal. What is called melting point is the temperature, or range, at which the solid turns liquid. Usually inhibition stands for the relative decrease from the control value, in per cent.
